In brackets after ≈: the same amount, converted by molar mass.
How the values were obtained:
[1] = Solubility of the ibuprofen derivative in water in the absence of β-CD (S0), UV 226 nm; type: physicochemical; details: water without β-CD, 25 °C, from calibration curves
Procedure: (§1) Stock solutions of β-CD were prepared in the concentration range of 0–15 mmol/L. From each stock solution 1 mL was taken and introduced into thermomixer flasks and 1 mL of suprasaturated solution of 4b, 4g, 4k, 4m was added and stirred at 600 rpm at 25 °C for 24 h, then at 60 °C for 24 h, and finally left to rest, at 25 °C, for another 24 h. UV absorbance was monitored within 190–320 nm on extracts freshly diluted with deionized water, and the maximum wavelength of 226 nm was selected for solubility determinations. All measurements were made in triplicate.

[2] = Phase solubility study with β-CD (apparent solubility constant K1:1); type: physicochemical; details: 1:1 complex, K1:1 = Slope/S0(1−Slope); β-CD 0–15 mmol/L
Procedure: as §1

[3] = tested on: Swiss albino mice; experiment: Tail-flick test; type: in vivo; details: oral gavage
Procedure: (§2) The tests were performed using Swiss albino mice (25–30 g) which were divided in groups of eight mice each.
The tail-flick test measures the reflex latency after exposure to a heating source, in order to evaluate the spinal response to pain. The tail flick unit (37360; UgoBasile, Gemonio, Italy) directs heat and stimulates the distal part of the mouse tail. The tail-flick latency is defined as the period before the mouse removed its tail from heat stimuli. The pain response at onset and at 1, 2, 3, and 4 h after administration of drugs, was noted. To prevent tissue lesions, the experiment cut-off time was set at 12 s. The pain inhibition (%) was calculated for each tested compound/β-CD complex and for each group the mean value (±S.E.) was reported.

[4] = tested on: Swiss albino mice; experiment: Hot-plate test; type: in vivo; details: oral gavage; for pain inhibition: after 4 h
Procedure: as §2
A hot-plate test was performed using a hot plate apparatus (DS 37; UgoBasile). The plate was set at 55 ± 0.1 °C and the response latency was noted as the interval between placing the animal on the plate and the occurrence of licking, shaking of the hind paws, or jumping off the surface. The latency of the analgesic response was measured at onset and at 1, 2, 3, and 4 h. The experiment cut-off time was set to 15 s to prevent tissue damage. For each group, the mean value (±S.E.) was reported.

[5] = tested on: Swiss albino mice; experiment: Acetic acid writhing test; type: in vivo; details: acetic acid 1% i.p. 4 h after oral administration, writhes counted over 30 min
Procedure: as §2
To determine visceral pain, a writhing test was used. […] The mice were placed in a large glass cylinder and the number of abdominal writhes was recorded over a period of 30 min. The inhibition (%) of writhings was calculated to ascertain the analgesic effect. For each group, the mean value (±S.E.) was reported.

[6] = tested on: Swiss albino mice; experiment: Paw formalin test; type: in vivo; details: formalin 5% 4 h after oral administration
Procedure: as §2
The analgesic and anti-inflammatory effects of the compounds were evaluated using formalin assay. […] The time (s) that the mice spent licking and/or biting the injected paw was recorded. Depending on the time value, the pain can be classified as neurogenic pain (0 to 5 min), interphase pain (5 to 15 min), and inflammatory pain (15 to 30 min). For each group, the mean value (±S.E.) was reported.

[7] = 1/20 of LD50, maximum after 2 h

Compound	solubility [1]	apparent solubility constant (K1:1) in the presence of β-CD [2]	pain inhibition, maximum effect [3, 7]	pain inhibition [4]	pain inhibition, maximum effect ([3]; 1/20 of LD50, maximum at 3 h)	inhibition of writhings [5]	time of maximum analgesic effect ([4]; 1/20 of LD50)	time mice spent licking the formalin-injected paw, first phase ([6]; first phase 0–5 min, neurogenic pain)	time mice spent licking the formalin-injected paw, second phase ([6]; second phase 15–30 min, inflammatory pain)
CC(C)Cc1ccc(C(C)C(=O)NN2C(=O)CSC2c2ccc(Cl)cc2)cc1 (centres unmarked) [4b]	9.21 µg/mL (≈ 22.1 µM)	771.81 mol⁻¹	25.54%	58.93%					
CC(C)Cc1ccc(C(C)C(=O)NN2C(=O)CSC2c2ccc([N+](=O)[O-])cc2)cc1 (centres unmarked) [4g]	15 µg/mL (≈ 35.1 µM)	723.50 mol⁻¹	24.90%						
CC(C)Cc1ccc(C(C)C(=O)NN2C(=O)CSC2c2ccc(C#N)cc2)cc1 (centres unmarked) [4k]	22.8 µg/mL (≈ 55.9 µM)	713.6510 mol⁻¹		63.03%	32.01%	58.60%			
CC(C)Cc1ccc(C(C)C(=O)NN2C(=O)CSC2c2ccc(N)cc2)cc1 (centres unmarked) [4m]	38.1 µg/mL (≈ 95.9 µM)				44.19%		3 h		
CC(C)Cc1ccc(C(C)C(=O)[O-])cc1.[Na+] (centres unmarked) [Ibu-Na, Ibuprofen sodium, reference compound]				47.22%	45.86%	55.65%		59.50 s	32 s

From PMC10609741 (Pharmaceutics, 2023)
